Measurements: article PMC12323621, “Exploring the antimicrobial activity of pantothenamides against uropathogenic Escherichia coli” (Microbiology Spectrum, 2025)

Experiments:
[1] = tested on: UPEC strain CFT073; assay: Antimicrobial susceptibility assay, UPEC grown in MOPS-glycerol; format: cell-based, Escherichia coli; settings: UPEC CFT073 grown in MOPS-glycerol, 24 h, ± standard error; for MIC: Escherichia coli
Description: Unless otherwise noted, all reagents were obtained from commercial sources. BAP, 1, and N5-Pan analogs were synthesized according to previously reported procedures ([31], [53]). Urine was self-collected from adult males and females (not menstruating) between 24 and 57 years old (recruitment was open to donors 18–65 years old), who had not used anti-infectives or cranberry products for at least 7 days prior to collection. The collection protocol was approved by the Johns Hopkins University Institutional Review Boards under IRB study NA_00085130. Informed, written consent was obtained from all participants prior to collection. Urine was collected from at least 7 participants over 14 days, stored at 4°C upon collection, and then pooled, filter-sterilized, and frozen at −20°C. Urine Batch A included five male and three female donors with an average age of 33 years (range: 24–57). Urine Batch B included four male and five female donors with an average age of 26 years (range: 24–43). Samples from two donors (donations made at least 30 days apart) were included in both Batch A and Batch B. Urine Batch C included four male and three female donors with an average age of 27 years (range: 24–36). Urine Batch D included four male and three female donors with an average age of 27 years (range: 25–35). Solid urine agar plates were prepared by supplementing cooled 1.5% (wt/vol) agar with filter-sterilized urine in a 4:1 ratio. Liquid MOPS-glycerol was prepared by adding 10 × 3-(N-morpholino)propanesulfonic acid (MOPS) Buffer (Teknova) to water to a final 1× concentration, 1.32 mM K2HPO4, and 0.4% (vol/vol) glycerol and then filter-sterilizing. Unless otherwise noted, all media were supplemented with freshly prepared 20 µM FeSO4. OD600 analyses were performed on Mettler-Toledo UV5Bio UV/Visible spectrophotometer (Columbus, Ohio, USA). For antimicrobial studies, uropathogenic E. coli strain CFT073 (ATCC: BAA-2503) was provided by Kevin Schwartz from the lab of Rodney Welch. All manipulation of UPEC was conducted in a certified biosafety level 2 (BSL-2) laboratory while using BSL-2-associated safety procedures. Antimicrobial data were collected on a Biotek Epoch 2 microplate reader or a Biotek Synergy Neo 2 microplate reader. For metabolic stability studies, losartan potassium (PHR1602), used as an internal standard, was bought from Millipore Sigma (Burlington, MA). Methanol (A456-4) and acetonitrile (A955-4) were purchased from Fisher Chemical (Pittsburgh, PA). Water (9831-03) was purchased from JT Baker (Philipsburg, NJ). Dimethyl sulfoxide (DMSO)(154938-500mL) was purchased from Sigma Aldrich (St. Louis, MO). Mouse plasma (WT) was purchased from Innovative Research (Novi, MI). Mouse liver microsomes (M1000) were purchased from XenoTech LLC (Kansas City, KS).
All antimicrobial susceptibility assays were conducted as previously described using an aseptic technique with some modification ([7]). Briefly, 3–5 isolated colonies of CFT073 on LB agar or pooled urine agar were inoculated into 3 mL of liquid MOPS-glycerol medium or pooled urine, respectively, and grown overnight with shaking at 37°C. Saturated cultures were diluted 1:50 in fresh medium and grown to an OD600 of 0.4. These exponential phase cultures were then diluted 1:1,000 into fresh medium to yield the experimental inoculum, which was mixed 1:1 with medium containing 1 or N5-Pan analog at twice the desired final concentration in 96-well plates. The final concentration of bacteria in each well was approximately 10^5 CFU/mL in a final volume of 200 µL. The concentration ranges of compounds evaluated in MOPS-glycerol were: 1 (0–312.5 μM), 2 (0–100 μM), 3 (0–500 μM), 4–5 (0–2,000 μM), 6–7 (0–100 μM), and 8–12 (0-2,000 μM). Analogs 1, 6, and 7 were evaluated over a range of 0–4,000 μM in four batches of pooled human urine. The OD600 was monitored for 24 h (MOPS-glycerol) or 16 h (pooled urine) at 37°C with periodic shaking. […]

[2] = Stability in mouse liver homogenate; format: in vitro ADME; settings: for remaining at 1 h, 10 µM: mouse, liver tissue homogenate (10% wt/vol), 10% wt/vol homogenate, 10 µM compound, 37°C; for stability in mouse liver homogenate: n = 3
Procedure: (§1) Stability studies were conducted in mouse liver microsomes, mouse liver tissue homogenate, and CD1 mouse plasma as previously described with minor modifications ([54][–][56]). Briefly, for Phase I mouse liver microsome stability, reactions were carried out with 200 mM potassium phosphate buffer, pH 7.4, with or without an NADPH-regenerating system (1.3 mM NADPH, 3.3 mM glucose 6-phosphate, 3.3 mM MgCl2, 0.4 U/mL glucose-6-phosphate dehydrogenase, and 50 µM sodium citrate). Reactions, in triplicate, were initiated by the addition of liver microsomes to the incubation mixture (compound final concentration was 1 µM; 0.2 mg/mL microsomes) and incubated at 37°C for the desired incubation time. For liver stability, the tissue homogenate was prepared by washing tissues with diluted 10-fold 0.1 M potassium phosphate buffer and homogenized using a probe sonicator over ice. To evaluate the stability of the drugs over time, each of the crude homogenates was aliquoted to 1 mL and then spiked with a final assay concentration of 10 µM of each drug, followed by incubation in an orbital shaker at 37°C for 1 h (in triplicate). For plasma stability, 1 mL of plasma was spiked with 10 µM of each drug, followed by incubation in an orbital shaker at 37°C for 1 h (in triplicate). Samples from each metabolism study were quenched with 3× volume of acetonitrile containing internal standard (losartan: 0.5 µM) at the desired incubation times. […] Samples were vortex-mixed for 30 s and centrifuged at 10,000 × g for 10 min at 4°C. Compound disappearance over time was monitored using a Dionex ultra-high-performance liquid chromatography system consisting of an analytical pump and an autosampler coupled with Q Exactive Focus orbitrap mass spectrometer (Thermo Fisher Scientific Inc., Waltham MA). […] The mobile phase used was composed of 0.1% formic acid in water and 0.1% formic acid in acetonitrile with gradient elution. The total run time for each analyte was 5 min.
(§2) The mass spectrometer was operated with a HESI ion source in positive ionization mode where compounds were identified in the full scan mode (from m/z 75.00–1125.00) and controlled by the Xcalibur software 4.0.27.13 (Thermo Scientific). Data were acquired using Xcalibur software. Drugs were identified in the full-scan mode (from m/z 75.00 to 1125.00) by comparing t = 0 samples with t = 30 or 60 min samples, and structures were proposed based on the accurate mass information. The percentage of compound remaining for pantothenamides 1, 6, and 7 was determined from the analyte/internal standard (IS) area ratios obtained at t = 30 or 60 min relative to the mean ratios obtained at t = 0 min and calculated using equation 1:
(§3) % Remaining=(Peak area of Analyte/Preak area of ISat t=30 or 60 min/MeanPeak area of Analyte/Peak area of ISat t=0 min)×100

[3] = Stability in mouse plasma; format: in vitro ADME; settings: for stability in mouse plasma: n = 3
Procedure: as §1, §2, §3

| Compound | MIC [1] [µM] | MIC MOPS-glycerol [1] [µM] | remaining at 1 h, 10 µM [2] [%] | stability in mouse liver homogenate [2] | remaining at 1 h, 10 µM ([3]; CD1, mouse, plasma, 1 h, 10 µM compound, 37°C) [%] | stability in mouse plasma [3] | % remaining in mouse plasma ([3]; 1 h, 10 µM compound, 37°C) |
| --- | --- | --- | --- | --- | --- | --- | --- |
| CCCCCNC(=O)CCNC(=O)[C@H](O)C(C)(C)CO [compound 1, N-pentylpantothenamide, reference compound] | 2.44 | 2.44 ± 0.00 | 17 | unstable | < 1 | unstable |  |
| CCCCCNC(=O)CNC(=O)[C@H](O)C(C)(C)CO [compound 6, N5-α-pantothenamide] | 6.25 | 6.25 ± 0.00 | 96 | good stability |  | good stability | no degradation |
